Results on 7 compounds are retold here after patent publication US10870646B2, “Oxazolidinones and pharmaceutical compositions thereof for treating bacterial infections, including infection of Mycobacterium tuberculosis” (University of St. Thomas, priority 2017, dated 2020).

Usually MIC90 stands for an inhibitory concentration at the 90% level, which refers to growth in some studies and to a panel of isolates in others. One may read the MBC as the lowest tested concentration that kills the bacteria rather than only halting them.

For one assay, the system named is Staphylococcus aureus. Description: MIC90 broth microdilution. Format: cell-based. To be noted: for MIC90: Staphylococcus aureus.
For assay [1], the system named is Mycobacterium tuberculosis. The following applies: cited from earlier work; for MIC90: Mycobacterium tuberculosis, strain not stated, Kaushik et al. 2015 cited after the table.
For the next assay, the system named is Enterococcus faecalis. The assay is described as follows: MIC90 broth microdilution. Type of assay: cell-based. The following applies: for MIC90: Enterococcus faecalis. A general note: Dilution methods test growth across graded concentrations, often in twofold steps.
The next assay has as its system Pseudomonas aeruginosa. Description: MIC90 broth microdilution. Type of assay: cell-based. The following applies: for MIC90: Pseudomonas aeruginosa.
Assay [2] has as its system E. faecalis. The assay is described as follows: Minimum bactericidal concentration (MBC99.9). Type of assay: cell-based, Enterococcus faecalis. To be noted: up to 8 times MIC90.
Another assay has as its system Mtb H37Rv. Description: Minimum bactericidal concentration (MBC99.9). Format: cell-based, Mycobacterium tuberculosis.
The subject of the next assay is Klebsiella pneumoniae. The assay is described as follows: MIC90 broth microdilution. The following applies: for MIC90: Klebsiella pneumoniae. Type of assay: cell-based.
The subject of assay [3] is Acinetobacter baumannii ACBA. The assay is described as follows: MIC90 broth microdilution. Type of assay: cell-based.
Assay [4] relates to Acinetobacter baumannii 6M-1b. Description: MIC90 broth microdilution. Format: cell-based.
For assay [5], the system named is E. faecalis. Type of assay: cell-based, Enterococcus faecalis.
Assay [6] relates to S. aureus. The assay is described as follows: Minimum bactericidal concentration (MBC99.9). Type of assay: cell-based, Staphylococcus aureus. The following applies: up to 8 times MIC90.
For assay [7], the system named is Acinetobacter baumannii ATCC 19606. The assay is described as follows: MIC90 broth microdilution. Format: cell-based. To be noted: ATCC19606.
For the next assay, the system named is Mycobacterium avium. Description: MIC90 broth microdilution. Type of assay: cell-based. The following applies: for MIC90: Mycobacterium avium.
A further assay relates to Mycobacterium abscessus. The assay is described as follows: MIC90 broth microdilution. Type of assay: cell-based. To be noted: for MIC90: Mycobacteroides abscessus.
The subject of a further assay is Enterobacter cloacae. Description: MIC90 broth microdilution. Type of assay: cell-based. The following applies: for MIC90: Enterobacter cloacae.
For assay [8], the system named is S. aureus. The assay is described as follows: Checkerboard titration assay (drug-drug interaction). Type of assay: cell-based, Staphylococcus aureus. The following applies: combined with biapenem, faropenem and tebipenem.
Assay [9] has as its system E. faecalis. The assay is described as above. Format: cell-based, Enterococcus faecalis. The following applies: combined with biapenem, faropenem and tebipenem.
The subject of another assay is Mtb. The description is as above. Format: cell-based, Mycobacterium tuberculosis. To be noted: combined with isoniazid or rifampicin.
Assay [10] concerns S. aureus. Type of assay: cell-based, Staphylococcus aureus.
Assay [11] has as its system Mycobacterium tuberculosis H37Rv. The assay is described as follows: MIC90 broth macrodilution. Type of assay: cell-based.
In assay [12] the test system is S. aureus. To be noted: Zurenko et al. 1996; cited from earlier work.
Where [13] appears, read: Acinetobacter baumannii ACBA, patient isolate.
Setting [14] is: Acinetobacter baumannii ACBA, patient isolate, read-out: MIC90.
Setting [15] is: Acinetobacter baumannii ATCC 19606, read-out: MIC90.
[16] abbreviates: Mycobacterium abscessus, read-out: MIC90.
[17] abbreviates: Mycobacterium tuberculosis H37Rv, read-out: MIC90.
[18] abbreviates: Acinetobacter baumannii 6M-1b, environmental isolate.

Converted amounts (≈) assume the structure as drawn. Read-outs that look alike come from different tables or passages of the source. A value given as a limit tells only on which side of the number the result lay.

Take `C[C@@H](O)[C@H]1C(=O)N2C(C(=O)[O-])=C(SC3Cn4cnc[n+]4C3)[C@H](C)[C@H]12` (some centres unmarked) [Biapenem]: the MIC90 was 0.007 to 0.015 µg/mL (≈ 0.02 to 0.0428 µM) with Staphylococcus aureus (read-out: MIC90), 2.5 to 5.0 µg/mL in assay [1] and 0.25 to 0.5 µg/mL (≈ 0.713 to 1.43 µM) in the assay with Enterococcus faecalis (read-out: MIC90).

Take `CC(=O)NC[C@H]1CN(c2ccc3c(c2)Oc2ccccc2O3)C(=O)O1` [Compound T145]: the “activity against growth (in words)” value is reported as “no activity” in the assay on Pseudomonas aeruginosa; “no activity” with Klebsiella pneumoniae; “potent activity” in the assay with Staphylococcus aureus; “potent activity” in the assay on Enterococcus faecalis; “no activity” in the assay with Mycobacterium avium; “no activity” in the assay with Mycobacterium abscessus. In addition, the “activity against growth (in words)” value in the assay on Enterobacter cloacae is reported as “no activity”. Also, the MIC90 was more than 64 µg/mL against Pseudomonas aeruginosa; more than 64 µg/mL in the assay with Klebsiella pneumoniae; 0.5 to 1 µg/mL (≈ 1.47 to 2.94 µM) against Staphylococcus aureus; more than 64 µg/mL in assay [3]; more than 64 µg/mL in [3] (Acinetobacter baumannii); 0.25 to 0.50 µg/mL in assay [4]. Also, the MIC90 in assay [4] (Acinetobacter baumannii, 6M1B) was 0.25 to 4 µg/mL (≈ 0.735 to 11.8 µM); in the assay on Enterococcus faecalis, 0.25 to 0.5 µg/mL (≈ 0.735 to 1.47 µM); in [7] (Acinetobacter baumannii), 32 to 64 µg/mL (≈ 94 to 188 µM); against Mycobacterium avium, more than 64 µg/mL; in the assay with Mycobacterium abscessus it was more than 64 µg/mL; in the assay with Enterobacter cloacae, more than 64 µg/mL. In assay [11] (Mycobacterium tuberculosis, H37RV), this compound returned an MIC90 of 0.5 to 1 µg/mL (≈ 1.47 to 2.94 µM). Also, the “bactericidal or bacteriostatic activity” value in the assay on E. faecalis [2] was “bacteriostatic”; in the assay on Mtb H37Rv (Mtb, 1, 2, 4 and 8 times MIC90), “bactericidal activity”; with S. aureus [6] it was “bacteriostatic”. Besides, the MBC against Mtb H37Rv (Mycobacterium tuberculosis, Mtb H37Rv) is 2 µg/mL (≈ 5.88 µM). For the same compound, the “selection of spontaneous resistant mutants” value in the assay on E. faecalis [5] and in the assay on S. aureus [10] was “failed to produce distinct colonies” each time. For the same compound, the “drug-drug interaction (synergy, indifference, antagonism)” value with S. aureus [8], in the assay on E. faecalis [9] and with Mtb was “indifferent” throughout.

`COc1cccc2c1Oc1ccc(N3C[C@H](CNC(C)=O)OC3=O)cc1O2` [Compound T197, (S)—N-((3-(6-methoxydibenzo[b,e][1,4]dioxin-2-yl)-2-oxooxazolidin-5-yl)methyl)acetamide]: the MIC90 was more than 64 µg/mL in the assay on Pseudomonas aeruginosa (read-out: MIC90); more than 64 µg/mL with Klebsiella pneumoniae (read-out: MIC90); 16 to 32 µg/mL (≈ 43.2 to 86.4 µM) with Staphylococcus aureus (read-out: MIC90); more than 64 µg/mL in assay [3] (setting [13]); more than 64 µg/mL in [3] (setting [14]); 8 to 16 µg/mL (≈ 21.6 to 43.2 µM) in the assay on Enterococcus faecalis (read-out: MIC90). Besides, the MIC90 in [7] (setting [15]) is more than 64 µg/mL; in the assay with Mycobacterium avium (read-out: MIC90), more than 64 µg/mL; in the assay on Mycobacterium abscessus (setting [16]) it was more than 64 µg/mL; in the assay with Enterobacter cloacae (read-out: MIC90) it was more than 64 µg/mL; in assay [11] (setting [17]), 8 to 16 µg/mL (≈ 21.6 to 43.2 µM).

As for `C[C@@H](O)[C@H]1C(=O)N2C(C(=O)O)=C([C@H]3CCCO3)S[C@H]12` [Faropenem], the MIC90 in the assay on Staphylococcus aureus (read-out: MIC90) was 0.015 to 0.03 µg/mL (≈ 0.0526 to 0.105 µM); in [1], 2.5 to 5.0 µg/mL; in the assay on Enterococcus faecalis (read-out: MIC90), 0.25 to 0.5 µg/mL (≈ 0.876 to 1.75 µM).

In the case of `CC(=O)NC[C@H]1CN(c2ccc(N3CCOCC3)c(F)c2)C(=O)O1` [Linezolid, reference compound], the MIC90 is more than 64 µg/mL with Pseudomonas aeruginosa (read-out: MIC90); 16 to 32 µg/mL (≈ 47.4 to 94.9 µM) with Klebsiella pneumoniae (read-out: MIC90); 1 to 2 µg/mL (≈ 2.96 to 5.93 µM) with Staphylococcus aureus (read-out: MIC90); more than 64 µg/mL in [3] (setting [13]); more than 64 µg/mL in assay [3] (setting [14]); 0.25 to 0.50 µg/mL in [4] (setting [18]). Also, the MIC90 is 0.25 to 4 µg/mL (≈ 0.741 to 11.9 µM) in assay [4] (Acinetobacter baumannii, 6M1B, Acinetobacter baumannii 6M-1b, environmental isolate, read-out: MIC90); 1 to 2 µg/mL (≈ 2.96 to 5.93 µM) in the assay with Enterococcus faecalis (read-out: MIC90); more than 64 µg/mL in assay [7] (setting [15]); more than 64 µg/mL with Enterobacter cloacae (read-out: MIC90); 0.2 to 2 µg/mL (≈ 0.593 to 5.93 µM) in assay [11] (setting [17]). For the same compound, in [1] (Mtb, Rodriguez et al. 2002), the MIC90 of linezolid is 0.5 to 2.0 µg/mL. Further, the “bactericidal or bacteriostatic activity” value in the assay with S. aureus [12] is listed as “bacteriostatic activity”.

For the compound `C[C@@H](O)[C@H]1C(=O)N2C(C(=O)O)=C(S[C@@H]3CN[C@H](C(=O)N(C)C)C3)[C@H](C)[C@H]12` [Meropenem, reference compound], the MIC90 is 0.25 to 0.5 µg/mL (≈ 0.652 to 1.3 µM) with Pseudomonas aeruginosa (read-out: MIC90); less than 0.06 µg/mL in the assay with Klebsiella pneumoniae (read-out: MIC90); 0.06 to 0.13 µg/mL (≈ 0.156 to 0.339 µM) in the assay with Staphylococcus aureus (read-out: MIC90); more than 64 µg/mL in assay [3] (setting [13]); more than 64 µg/mL in [3] (setting [14]); 1 to 2 µg/mL in assay [4] (setting [18]). The MIC90 in the assay on Enterococcus faecalis (read-out: MIC90) was 4 to 8 µg/mL (≈ 10.4 to 20.9 µM); in [7] (setting [15]) it was more than 64 µg/mL; with Mycobacterium avium (read-out: MIC90), more than 64 µg/mL; in the assay on Mycobacterium abscessus (setting [16]), more than 64 µg/mL; with Enterobacter cloacae (read-out: MIC90), 0.13 to 0.25 µg/mL (≈ 0.339 to 0.652 µM); in assay [11] (setting [17]) it was 4 to 8 µg/mL (≈ 10.4 to 20.9 µM).

For `C[C@@H](O)[C@H]1C(=O)N2C(C(=O)O)=C(SC3CN(C4=NCCS4)C3)[C@H](C)[C@H]12` [Tebipenem], the figures for the MIC90 (in the assay on Staphylococcus aureus (read-out: MIC90); in assay [1]; in the assay with Enterococcus faecalis (read-out: MIC90)) were 0.03 to 0.06 µg/mL (≈ 0.0782 to 0.156 µM), 1.25 to 2.5 µg/mL and 0.25 to 0.5 µg/mL (≈ 0.652 to 1.3 µM), respectively.
